In paper PMC9926475 (ACS chemical neuroscience, 2022):
Read-outs that look alike come from different tables or passages of the source.

Key:
[1] = Pharmacokinetic studies in plasma and brain of mice after i.p. injection; format: in vivo, mouse; conditions: for Cmax (mean ± SEM) Brain: normalized to free base dose; for Sex-dependent difference: Brain Total exposure (AUC) / Sex-dependent difference: Plasma Total exposure (AUC): standard t-test, F female, M male, NS not statistically different
[2] = system: male mice; assay: Forced swim test immobility time 24 h after i.p. treatment; format: in vivo, mouse; conditions: for Minimal effective dose to reduce immobility time in the forced swim test: 24 h after injection; for Shape of dose response curve for forced swim test immobility: tested range up to 100 mg/kg
[3] = target: N-methyl-D-aspartate receptor (NMDAR); conditions: cited from earlier work
[4] = system: mice; conditions: i.p., cited from earlier work
[5] = i.p.; ref [4]; cited from earlier work
[6] = both sexes, i.p. 5 mg/kg, 10 min was the earliest time point

N[C@]1(c2ccccc2Cl)C[C@@H](O)CCC1=O [(2S,4S)-HNK]
Cmax (mean ± SEM) Brain ([1]; female CD-1 mice, i.p. 5 mg/kg): 234 ± 10.9 ng/g•mg/kg
B:P ratio (brain to plasma AUC ratio) ([1]; female mice, i.p. 5 mg/kg): 0.9
t1/2 Brain (terminal half-life) ([1]; female mice, i.p. 5 mg/kg): 35 min
t1/2 Plasma (terminal half-life) ([1]; female mice, i.p. 5 mg/kg): 42 min
Cmax (mean ± SEM) Brain ([1]; male CD-1 mice, i.p. 5 mg/kg): 127 ± 9.5 ng/g•mg/kg
B:P ratio (brain to plasma AUC ratio) ([1]; male mice, i.p. 5 mg/kg): 0.7
t1/2 Brain (terminal half-life) ([1]; male mice, i.p. 5 mg/kg): 34 min
t1/2 Plasma (terminal half-life) ([1]; male mice, i.p. 5 mg/kg): 39 min
Sex-dependent difference: Brain Total exposure (AUC) [1]: F > M
Sex-dependent difference: Plasma Total exposure (AUC) [1]: F > M

N[C@]1(c2ccccc2Cl)CC[C@@H](O)CC1=O [(2S,5R)-HNK]
Cmax (mean ± SEM) Brain ([1]; female CD-1 mice, i.p. 5 mg/kg): 258 ± 15.4 ng/g•mg/kg
B:P ratio (brain to plasma AUC ratio) ([1]; female mice, i.p. 5 mg/kg): 1.0
t1/2 Brain (terminal half-life) ([1]; female mice, i.p. 5 mg/kg): 31 min
t1/2 Plasma (terminal half-life) ([1]; female mice, i.p. 5 mg/kg): 28 min
Cmax (mean ± SEM) Brain ([1]; male CD-1 mice, i.p. 5 mg/kg): 242 ± 9.8 ng/g•mg/kg
B:P ratio (brain to plasma AUC ratio) ([1]; male mice, i.p. 5 mg/kg): 0.7
Tmax brain ([1]; male mice, i.p. 5 mg/kg): 30 min
t1/2 Brain (terminal half-life) ([1]; male mice, i.p. 5 mg/kg): 40 min
t1/2 Plasma (terminal half-life) ([1]; male mice, i.p. 5 mg/kg): 37 min
Sex-dependent difference: Brain Total exposure (AUC) [1]: M > F
Sex-dependent difference: Plasma Total exposure (AUC) [1]: M > F

N[C@]1(c2ccccc2Cl)CC[C@H](O)CC1=O [(2S,5S)-HNK]
Brain level at 4 h post-treatment ([1]; both sexes, i.p. 5 mg/kg, LLOQ 5.0 ng/ml): below LLOQs
Cmax (mean ± SEM) Brain ([1]; female CD-1 mice, i.p. 5 mg/kg): 129 ± 2.8 ng/g•mg/kg
B:P ratio (brain to plasma AUC ratio) ([1]; female mice, i.p. 5 mg/kg): 1.3
t1/2 Brain (terminal half-life) ([1]; female mice, i.p. 5 mg/kg): 17 min
t1/2 Plasma (terminal half-life) ([1]; female mice, i.p. 5 mg/kg): 34 min
Cmax (mean ± SEM) Brain ([1]; male CD-1 mice, i.p. 5 mg/kg): 138 ± 8.3 ng/g•mg/kg
B:P ratio (brain to plasma AUC ratio) ([1]; male mice, i.p. 5 mg/kg): 1.2
t1/2 Brain (terminal half-life) ([1]; male mice, i.p. 5 mg/kg): 16 min
t1/2 Plasma (terminal half-life) ([1]; male mice, i.p. 5 mg/kg): 27 min

N[C@]1(c2ccccc2Cl)CCC[C@@H](O)C1=O [(2S,6R)-HNK]
Cmax (mean ± SEM) Brain ([1]; female CD-1 mice, i.p. 5 mg/kg): 177 ± 19.8 ng/g•mg/kg
B:P ratio (brain to plasma AUC ratio) ([1]; female mice, i.p. 5 mg/kg): 1.4
t1/2 Brain (terminal half-life) ([1]; female mice, i.p. 5 mg/kg): 45 min
t1/2 Plasma (terminal half-life) ([1]; female mice, i.p. 5 mg/kg): 47 min
Brain Cmax and AUC compared to equivalent dosing with (2R,6R)-HNK ([1]; from Table 1): approximately three-fold lower
Cmax (mean ± SEM) Brain ([1]; male CD-1 mice, i.p. 5 mg/kg): 117 ± 30.6 ng/g•mg/kg
B:P ratio (brain to plasma AUC ratio) ([1]; male mice, i.p. 5 mg/kg): 1.2
t1/2 Brain (terminal half-life) ([1]; male mice, i.p. 5 mg/kg): 45 min
t1/2 Plasma (terminal half-life) ([1]; male mice, i.p. 5 mg/kg): 45 min
Sex-dependent difference: Brain Total exposure (AUC) [1]: F > M
Sex-dependent difference: Plasma Total exposure (AUC) [1]: F > M
Minimal effective dose to reduce immobility time in the forced swim test [2]: 3 mg/kg
Shape of dose response curve for forced swim test immobility [2]: U-shaped dose response curves
Ki ([3]; read-out: NMDAR binding affinity, ref [31]): > 100000 nM

N[C@]1(c2ccccc2Cl)CCC[C@H](O)C1=O [(2S,6S)-HNK, (2S,6S)-hydroxynorketamine]
Cmax (mean ± SEM) Brain ([1]; female CD-1 mice, i.p. 5 mg/kg): 993 ± 27.1 ng/g•mg/kg
B:P ratio (brain to plasma AUC ratio) ([1]; female mice, i.p. 5 mg/kg): 1.2
t1/2 Brain (terminal half-life) ([1]; female mice, i.p. 5 mg/kg): 44 min
t1/2 Plasma (terminal half-life) ([1]; female mice, i.p. 5 mg/kg): 46 min
Cmax (mean ± SEM) Brain ([1]; male CD-1 mice, i.p. 5 mg/kg): 712 ± 47.3 ng/g•mg/kg
Cmax and AUC, fold greater than those of (2R,6R)-HNK ([1]; male mice, equivalent doses): 2-3 fold
B:P ratio (brain to plasma AUC ratio) ([1]; male mice, i.p. 5 mg/kg): 1.0
t1/2 Brain (terminal half-life) ([1]; male mice, i.p. 5 mg/kg): 41 min
t1/2 Plasma (terminal half-life) ([1]; male mice, i.p. 5 mg/kg): 44 min
Sex-dependent difference: Brain Total exposure (AUC) [1]: F > M
Sex-dependent difference: Plasma Total exposure (AUC) [1]: F > M
Minimal effective dose to reduce immobility time in the forced swim test [2]: 30 mg/kg
Shape of dose response curve for forced swim test immobility [2]: did not demonstrate U-shaped dose responses
Lowest dose reducing forced swim test immobility time ([4]; ref [4]): 25 mg/kg
Effect on forced swim test immobility time and measures of anhedonia following chronic stress ([4]; mice, 20 mg/kg, ref [23]): reduced forced swim test immobility time and measures of anhedonia
Lowest dose reducing escape failures in the learned helplessness test [5]: 75 mg/kg

C[C@@H]1CC[C@@](N)(c2ccccc2Cl)C(=O)[C@@H]1O [(5R)-methyl-(2R,6R)-HNK, (5R)-methyl-(2R,6R)-hydroxynorketamine]
Brain to plasma AUC ratio ([1]; both sexes, i.p. 5 mg/kg): 0.4
Plasma elimination half-life ([1]; both sexes, i.p. 5 mg/kg): 49 min
Tmax brain [1, 6]: 10 min
Tmax plasma (time of observed maximal concentrations) [1, 6]: 10 min
Cmax (mean ± SEM) Brain ([1]; female CD-1 mice, i.p. 5 mg/kg): 352 ± 22.4 ng/g•mg/kg
B:P ratio (brain to plasma AUC ratio) ([1]; female mice, i.p. 5 mg/kg): 0.4
t1/2 Brain (terminal half-life) ([1]; female mice, i.p. 5 mg/kg): 41 min
t1/2 Plasma (terminal half-life) ([1]; female mice, i.p. 5 mg/kg): 49 min
Cmax (mean ± SEM) Brain ([1]; male CD-1 mice, i.p. 5 mg/kg): 324 ± 13.0 ng/g•mg/kg
B:P ratio (brain to plasma AUC ratio) ([1]; male mice, i.p. 5 mg/kg): 0.4
t1/2 Brain (terminal half-life) ([1]; male mice, i.p. 5 mg/kg): 48 min
t1/2 Plasma (terminal half-life) ([1]; male mice, i.p. 5 mg/kg): 49 min
Sex-dependent difference: Brain Total exposure (AUC) [1]: M > F
Sex-dependent difference: Plasma Total exposure (AUC) [1]: M > F
Minimal effective dose to reduce immobility time in the forced swim test [2]: 1 mg/kg
Doses at which immobility time was reduced relative to vehicle ([2]; 24 h after treatment): 1 to 10 mg/kg

CNC1(c2ccccc2Cl)CCCCC1=O (centres unmarked) [ketamine, reference compound]
Ki ([3]; read-out: Ki, inhibitory actions on NMDARs, ref [19],[31],[32]): 250 to 1060 nM
